Test results from patent publication US20200017496A1 (priority 2017, published 2020).
“And” between values parts separate entries of the source, which are not always exact repeats. Identical values can stand only once. Like-named read-outs stand apart in the source and are kept apart here.

Assays:
Test in all cases: MIC of compounds alone and combined with antibacterials, broth microdilution (CLSI)
Assay type in all cases: cell-based
[1] = system: Salmonella typhimurium (STY) isolates
Procedure, shortened: (§1)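 Compound MIC, and antibacterial MIC at each fixed compound level, taken by visual inspection as lowest concentration stopping growth. Inoculum: log-phase bacteria, final 5·10^5 CFU/mL, cation-adjusted Mueller-Hinton broth; 16-20 h, 35° C, ambient air.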

[2] = system: Citrobacter koseri (CKR) isolates; conditions: for MIC ATB in combination: AF1 @ 4 μg/mL
Procedure, shortened: as §1

[3] = system: Klebsiella pneumoniae (KPN) isolates; conditions: for MIC ATB in combination: AF1 @ 4 μg/mL
Procedure, shortened: as §1

[4] = system: Klebsiella oxytoca (KOX) isolates; conditions: for MIC ATB in combination: AF1 @ 4 μg/mL
Procedure, shortened: as §1

[5] = system: Providencia stuartii (PST) isolates; conditions: for MIC ATB in combination: AF1 @ 4 μg/mL
Procedure, shortened: as §1

CC1(C)S[C@@H]2[C@H](NC(=O)[C@H](N)c3ccc(O)cc3)C(=O)N2[C@H]1C(=O)O [AMX, Amoxicillin]
MIC ATB in combination [1]: 128 µg/mL
MIC ([1]; Salmonella enterica, TYPHIMURIUM, strain STY S3371 (OXA-1), ATB alone): > 256 µg/mL
MIC ([1]; Salmonella enterica, TYPHIMURIUM, strain STY S3371 (OXA-1), CLA @ 4 μg/ml+ ATB): 128 µg/mL
MIC ATB in combination ([2]; CKO ROU): 32 µg/mL
MIC ATB in combination ([2]; CKO UFR149): 512 µg/mL
MIC ATB in combination ([2]; CKO UFR150): 64 µg/mL
MIC ([2]; Citrobacter koseri, strain CKO ROU (TEM-1, SHV-12, CTX-M-15, OXA-1, OXA-48), ATB alone): > 256 µg/mL
MIC ([2]; Citrobacter koseri, strain CKO ROU (TEM-1, SHV-12, CTX-M-15, OXA-1, OXA-48), CLA @ 4 μg/ml+ ATB): > 128 µg/mL
MIC ([2]; Citrobacter koseri, strain CKO UFR149 (OXA-48), ATB alone): > 128 µg/mL
MIC ([2]; Citrobacter koseri, strain CKO UFR149 (OXA-48), CLA @ 4 μg/ml+ ATB): > 128 µg/mL
MIC ([2]; Citrobacter koseri, strain CKO UFR150 (TEM-1, OXA-48), ATB alone): > 128 µg/mL
MIC ([2]; Citrobacter koseri, strain CKO UFR150 (TEM-1, OXA-48), CLA @ 4 μg/ml+ ATB): > 128 µg/mL
MIC [3]: >128 µg/mL and 128 µg/mL
MIC ATB in combination ([3]; KPN 6299): 256 µg/mL
MIC ATB in combination ([3]; KPN 131119): 256 µg/mL
MIC ATB in combination ([3]; KPN 140513): >512 µg/mL
MIC ATB in combination ([3]; KPN 190270): 16 µg/mL
MIC ATB in combination ([3]; KPN 190551): 64 µg/mL
MIC ATB in combination ([3]; KPN 200047): 16 µg/mL
MIC ATB in combination ([3]; KPN 200327): 32 µg/mL
MIC ATB in combination ([3]; KPN 260252): 256 µg/mL
MIC ATB in combination ([3]; KPN 260376): 32 µg/mL
MIC ATB in combination ([3]; KPN 270077): 4 µg/mL
MIC ATB in combination ([3]; KPN 700603): 4 µg/mL
MIC ATB in combination ([3]; KPN ARA): 256 µg/mL
MIC ATB in combination ([3]; KPN BAA-1898): 256 µg/mL
MIC ATB in combination ([3]; KPN LIB): 16 µg/mL
MIC ATB in combination ([3]; KPN UFR22_O): 64 µg/mL
MIC ATB in combination ([3]; KPN UFR23): 32 µg/mL
MIC ATB in combination ([3]; KPN UFR24): 64 µg/mL
MIC ATB in combination ([3]; KPN UFR25): 512 µg/mL
MIC ATB in combination ([3]; KPN UFR65): 256 µg/mL
MIC ATB in combination ([3]; KPN UFR66): 256 µg/mL
MIC ATB in combination ([3]; KPN UFR67): 256 µg/mL
MIC ATB in combination ([3]; KPN UFR68): 256 µg/mL
MIC ATB in combination ([3]; KPN UFR76): >512 µg/mL
MIC ATB in combination ([3]; KPN UFR77): 64 µg/mL
MIC ATB in combination ([3]; KPN UFR78): >512 µg/mL
MIC ATB in combination ([3]; KPN UFR79): >512 µg/mL
MIC ATB in combination ([3]; KPN UFR81): >512 µg/mL
MIC ATB in combination ([3]; KPN UFR215): 64 µg/mL
MIC ATB in combination ([3]; KPN UFR216): 32 µg/mL
MIC ATB in combination ([3]; KPN UFR217): 64 µg/mL
MIC ATB in combination ([3]; KPN UFR220): 512 µg/mL
MIC ATB in combination ([3]; KPN UFR221): 256 µg/mL
MIC ATB in combination ([3]; KPN UFR222): >512 µg/mL
MIC ATB in combination ([3]; KPN UFR227O): 512 µg/mL
MIC ([3]; Klebsiella pneumoniae): > 256 µg/mL
MIC ([3]; Klebsiella pneumoniae, BAA1898, strain KPN BAA-1898 (TEM-1, SHV-11, SHV-12, KPC-2), ATB alone, read-out: MIC): > 1020 µg/mL
MIC ([3]; Klebsiella pneumoniae, BAA1898, strain KPN BAA-1898 (TEM-1, SHV-11, SHV-12, KPC-2), CLA @ 4 μg/ml+ ATB, read-out: MIC): > 512 µg/mL
MIC ([3]; Klebsiella pneumoniae, strain KPN 6299 (TEM-1, SHV-11, OXA-163), ATB alone, read-out: MIC): > 1020 µg/mL
MIC ([3]; Klebsiella pneumoniae, strain KPN 6299 (TEM-1, SHV-11, OXA-163), CLA @ 4 μg/ml+ ATB, read-out: MIC): > 512 µg/mL
MIC ([3]; Klebsiella pneumoniae, strain KPN 131119 (TEM-1, SHV-11, CTX-M-15, OXA-1, OXA-48), CLA @ 4 μg/ml+ ATB, read-out: MIC): > 512 µg/mL
MIC ([3]; Klebsiella pneumoniae, strain KPN 200047 (TEM-1, SHV-32, CTX-M-15, OXA-1), CLA @ 4 μg/ml+ ATB, read-out: MIC): 32 µg/mL
MIC ([3]; Klebsiella pneumoniae, strain KPN 200327 (TEM-1, SHV-1, CTX-M-15, OXA-1), CLA @ 4 μg/ml+ ATB, read-out: MIC): 32 µg/mL
MIC ([3]; Klebsiella pneumoniae, strain KPN 270077 (TEM-1, SHV-1, CTX-M-15), CLA @ 4 μg/ml+ ATB, read-out: MIC): 32 µg/mL
MIC ([3]; Klebsiella pneumoniae, strain KPN 700603 (SHV-18, OXA-2), CLA @ 4 μg/ml+ ATB, read-out: MIC): 8 µg/mL
MIC ([3]; Klebsiella pneumoniae, strain KPN LIB (SHV-11, OXA-48), CLA @ 4 μg/ml+ ATB, read-out: MIC): > 512 µg/mL
MIC ([3]; Klebsiella pneumoniae, strain KPN UFR68 (TEM-1, SHV-11, CTX-M-15, KPC-3), ATB alone, read-out: MIC): > 1020 µg/mL
MIC ATB in combination ([4]; KOX UFR21): 256 µg/mL
MIC ATB in combination ([4]; KOX UFR173): 4 µg/mL
MIC ATB in combination ([4]; KOX UFR223): 16 µg/mL
MIC ATB in combination ([4]; KOX UFR224): 64 µg/mL
MIC ([4]; Klebsiella oxytoca): > 128 µg/mL
MIC ([4]; Klebsiella oxytoca, strain KOX UFR21 (TEM-1, CTX-M-15, OXA-48), ATB alone): > 256 µg/mL
MIC ([4]; Klebsiella oxytoca, strain KOX UFR21 (TEM-1, CTX-M-15, OXA-48), CLA @ 4 μg/ml+ ATB): > 128 µg/mL
MIC ([4]; Klebsiella oxytoca, strain KOX UFR223 (SHV-11, OXA-48), ATB alone): > 128 µg/mL
MIC ([4]; Klebsiella oxytoca, strain KOX UFR223 (SHV-11, OXA-48), CLA @ 4 μg/ml+ ATB): > 128 µg/mL
MIC ([4]; Klebsiella oxytoca, strain KOX UFR224 (CTX-M-15, OXA-48), ATB alone): > 128 µg/mL
MIC ([4]; Klebsiella oxytoca, strain KOX UFR224 (CTX-M-15, OXA-48), CLA @ 4 μg/ml+ ATB): > 128 µg/mL
MIC [5]: 128 µg/mL
MIC ATB in combination ([5]; PST UFR94): 16 µg/mL
MIC ATB in combination ([5]; PST UFR95): 32 µg/mL
MIC ATB in combination ([5]; PST UFR235): 32 µg/mL
MIC ([5]; Providencia stuartii): > 128 µg/mL

NC(=O)[C@@H]1CC[C@@H]2CN1C(=O)N2OC(F)(F)C(=O)[O-].[Na+] [EA1]
MIC ([1]; STY S3371, alone): >32 µg/mL
MIC ([2]; CKO ROU, alone): 16 µg/mL
MIC ([2]; CKO UFR149, alone): 16 µg/mL
MIC ([2]; CKO UFR150, alone): >32 µg/mL
MIC ([3]; KPN 6299, alone): >32 µg/mL
MIC ([3]; KPN 110376, alone): >32 µg/mL
MIC ([3]; KPN 131119, alone): >32 µg/mL
MIC ([3]; KPN 140513, alone): >32 µg/mL
MIC ([3]; KPN 160143, alone): >32 µg/mL
MIC ([3]; KPN 190128, alone): >32 µg/mL
MIC ([3]; KPN 190270, alone): >32 µg/mL
MIC ([3]; KPN 190425, alone): >32 µg/mL
MIC ([3]; KPN 190551, alone): >32 µg/mL
MIC ([3]; KPN 200047, alone): >32 µg/mL
MIC ([3]; KPN 200327, alone): >32 µg/mL
MIC ([3]; KPN 260251, alone): >32 µg/mL
MIC ([3]; KPN 260252, alone): >32 µg/mL
MIC ([3]; KPN 260376, alone): >32 µg/mL
MIC ([3]; KPN 270077, alone): >32 µg/mL
MIC ([3]; KPN 700603, alone): >32 µg/mL
MIC ([3]; KPN ARA, alone): >32 µg/mL
MIC ([3]; KPN BAA-1898, alone): >32 µg/mL
MIC ([3]; KPN LIB, alone): >32 µg/mL
MIC ([3]; KPN UFR22_O, alone): >32 µg/mL
MIC ([3]; KPN UFR23, alone): >32 µg/mL
MIC ([3]; KPN UFR24, alone): >32 µg/mL
MIC ([3]; KPN UFR25, alone): >32 µg/mL
MIC ([3]; KPN UFR27, alone): >32 µg/mL
MIC ([3]; KPN UFR28, alone): >32 µg/mL
MIC ([3]; KPN UFR65, alone): >32 µg/mL
MIC ([3]; KPN UFR66, alone): >32 µg/mL
MIC ([3]; KPN UFR67, alone): >32 µg/mL
MIC ([3]; KPN UFR68, alone): >32 µg/mL
MIC ([3]; KPN UFR76, alone): >32 µg/mL
MIC ([3]; KPN UFR77, alone): >32 µg/mL
MIC ([3]; KPN UFR78, alone): >32 µg/mL
MIC ([3]; KPN UFR79, alone): >32 µg/mL
MIC ([3]; KPN UFR80, alone): >32 µg/mL
MIC ([3]; KPN UFR81, alone): >32 µg/mL
MIC ([3]; KPN UFR215, alone): >32 µg/mL
MIC ([3]; KPN UFR216, alone): >32 µg/mL
MIC ([3]; KPN UFR217, alone): >32 µg/mL
MIC ([3]; KPN UFR219, alone): >32 µg/mL
MIC ([3]; KPN UFR220, alone): >32 µg/mL
MIC ([3]; KPN UFR221, alone): >32 µg/mL
MIC ([3]; KPN UFR222, alone): >32 µg/mL
MIC ([3]; KPN UFR227O, alone): >32 µg/mL
MIC ([4]; KOX UFR21, alone): >32 µg/mL
MIC ([4]; KOX UFR173, alone): >32 µg/mL
MIC ([4]; KOX UFR223, alone): >32 µg/mL
MIC ([4]; KOX UFR224, alone): >32 µg/mL
MIC ([5]; PST UFR94, alone): >32 µg/mL
MIC ([5]; PST UFR95, alone): >32 µg/mL
MIC ([5]; PST UFR235, alone): 16 µg/mL
